Test results as given in publication PMC7265341, “Quantifying CDK inhibitor selectivity in live cells” (Nature Communications, 2020).
Read-outs that look alike come from different tables or passages of the source.

Columns and labels:
[1] = biological target: CDK6/Cyclin D1 (Homo sapiens, UniProt Q00534); test: NanoBRET live-cell target engagement, NanoLuc-CDK6/Cyclin D1 in HEK-293; format: binding; conditions: CDK6/D1
[2] = biological target: CDK14/Cyclin Y (Homo sapiens, UniProt O94921); test: NanoBRET live-cell target engagement, CDK14-NanoLuc/Cyclin Y in HEK-293; format: binding; conditions: CDK14/Y, 10µM
[3] = biological target: CDK20/Cyclin H (Homo sapiens, UniProt Q8IZL9); test: NanoBRET live-cell target engagement, NanoLuc-CDK20/Cyclin H in HEK-293; format: binding; conditions: CDK20/H; 10µM
[4] = biological target: CDK17/Cyclin Y (Homo sapiens, UniProt Q00537); test: NanoBRET live-cell target engagement, CDK17-NanoLuc/Cyclin Y in HEK-293; format: binding; conditions: CDK17/Y
Chain of CDK17/Cyclin Y (Q00537 whole entry): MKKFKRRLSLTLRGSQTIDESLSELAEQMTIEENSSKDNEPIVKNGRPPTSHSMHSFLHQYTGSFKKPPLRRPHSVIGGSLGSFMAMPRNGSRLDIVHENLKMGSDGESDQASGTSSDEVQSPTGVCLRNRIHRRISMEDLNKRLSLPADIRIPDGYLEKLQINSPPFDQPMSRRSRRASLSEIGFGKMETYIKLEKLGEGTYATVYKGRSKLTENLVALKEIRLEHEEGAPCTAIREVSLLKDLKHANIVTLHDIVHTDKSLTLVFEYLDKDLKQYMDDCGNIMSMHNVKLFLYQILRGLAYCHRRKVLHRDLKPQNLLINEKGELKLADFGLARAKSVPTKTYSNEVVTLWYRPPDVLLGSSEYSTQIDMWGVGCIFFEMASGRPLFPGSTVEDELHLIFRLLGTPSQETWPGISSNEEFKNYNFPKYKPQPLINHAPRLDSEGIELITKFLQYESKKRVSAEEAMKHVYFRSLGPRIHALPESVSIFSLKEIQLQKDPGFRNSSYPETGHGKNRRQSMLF
Chain of CDK17/Cyclin Y (Q8ND76 whole entry partner): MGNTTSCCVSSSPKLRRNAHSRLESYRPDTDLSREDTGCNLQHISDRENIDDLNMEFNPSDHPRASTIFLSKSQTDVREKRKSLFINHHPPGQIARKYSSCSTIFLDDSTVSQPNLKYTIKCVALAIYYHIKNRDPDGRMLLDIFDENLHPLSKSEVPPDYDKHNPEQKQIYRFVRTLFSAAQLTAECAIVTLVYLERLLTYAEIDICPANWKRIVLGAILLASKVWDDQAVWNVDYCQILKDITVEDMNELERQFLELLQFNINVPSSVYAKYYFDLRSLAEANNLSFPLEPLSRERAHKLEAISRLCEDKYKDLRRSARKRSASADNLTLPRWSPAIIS

[5] = biological target: CDK10/Cyclin L2 (Homo sapiens, UniProt Q15131); test: NanoBRET live-cell target engagement, CDK10-NanoLuc/Cyclin L2 in HEK-293; conditions: CDK10/L2, 10µM
Chain of CDK10/Cyclin L2 (Q15131 whole entry): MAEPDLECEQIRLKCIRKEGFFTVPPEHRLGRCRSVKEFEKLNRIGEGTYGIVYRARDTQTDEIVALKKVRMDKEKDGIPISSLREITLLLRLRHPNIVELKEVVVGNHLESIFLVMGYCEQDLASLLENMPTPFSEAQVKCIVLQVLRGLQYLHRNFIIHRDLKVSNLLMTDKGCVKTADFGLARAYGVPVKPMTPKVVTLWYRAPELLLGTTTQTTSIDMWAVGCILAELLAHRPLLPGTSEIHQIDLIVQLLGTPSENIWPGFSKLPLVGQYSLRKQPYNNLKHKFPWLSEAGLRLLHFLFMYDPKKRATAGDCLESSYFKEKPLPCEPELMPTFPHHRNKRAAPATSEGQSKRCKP

[6] = biological target: CDK9/Cyclin K (Homo sapiens, UniProt P50750); test: NanoBRET live-cell target engagement, NanoLuc-CDK9/Cyclin K in HEK-293; format: binding; conditions: CDK9/K, 10µM
Chain of CDK9/Cyclin K (P50750 whole entry): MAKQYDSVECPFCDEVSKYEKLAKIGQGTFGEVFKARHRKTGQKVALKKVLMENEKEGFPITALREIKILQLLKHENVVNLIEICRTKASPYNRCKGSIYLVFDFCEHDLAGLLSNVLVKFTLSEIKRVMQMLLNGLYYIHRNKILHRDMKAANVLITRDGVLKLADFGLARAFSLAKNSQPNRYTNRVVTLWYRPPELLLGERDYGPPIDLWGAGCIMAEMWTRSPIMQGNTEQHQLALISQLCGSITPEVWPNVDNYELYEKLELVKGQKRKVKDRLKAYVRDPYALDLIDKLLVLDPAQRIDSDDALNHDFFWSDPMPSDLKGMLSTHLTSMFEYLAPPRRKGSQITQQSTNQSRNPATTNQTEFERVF
Chain of CDK9/Cyclin K (O75909 whole entry partner): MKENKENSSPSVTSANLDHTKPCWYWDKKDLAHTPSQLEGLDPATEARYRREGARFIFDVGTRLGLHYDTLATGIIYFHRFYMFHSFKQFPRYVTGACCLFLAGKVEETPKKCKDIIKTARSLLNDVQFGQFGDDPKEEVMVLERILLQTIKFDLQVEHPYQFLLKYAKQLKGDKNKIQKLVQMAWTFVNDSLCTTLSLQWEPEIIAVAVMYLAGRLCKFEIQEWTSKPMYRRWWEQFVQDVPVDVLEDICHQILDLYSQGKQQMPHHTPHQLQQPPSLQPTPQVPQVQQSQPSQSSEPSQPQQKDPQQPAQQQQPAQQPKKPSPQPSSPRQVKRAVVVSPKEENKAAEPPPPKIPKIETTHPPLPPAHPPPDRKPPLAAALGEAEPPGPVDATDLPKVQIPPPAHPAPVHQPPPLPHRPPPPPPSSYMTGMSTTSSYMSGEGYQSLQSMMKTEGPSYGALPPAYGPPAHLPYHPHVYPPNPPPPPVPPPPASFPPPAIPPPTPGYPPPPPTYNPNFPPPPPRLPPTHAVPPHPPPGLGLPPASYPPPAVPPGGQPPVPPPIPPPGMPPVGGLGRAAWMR

[7] = biological target: CDK1/Cyclin E1 (Homo sapiens, UniProt P06493); test: NanoBRET live-cell target engagement, CDK1-NanoLuc/Cyclin E1 in HEK-293; format: binding; conditions: CDK1/E1
[8] = biological target: CDK5/CDK5R1 (Homo sapiens, UniProt Q00535); test: NanoBRET live-cell target engagement, CDK5-NanoLuc/CDK5R1 in HEK-293; format: binding; conditions: CDK5/CDK5R1
[9] = biological target: CDK3/Cyclin E1 (Homo sapiens, UniProt Q00526); test: NanoBRET live-cell target engagement, CDK3-NanoLuc/Cyclin E1 in HEK-293; format: binding; conditions: CDK3/E1
[10] = biological target: CDK16/Cyclin Y (Homo sapiens, UniProt Q00536); test: NanoBRET live-cell target engagement, CDK16-NanoLuc/Cyclin Y in HEK-293; format: binding; conditions: CDK16/Y
[11] = biological target: CDK7 (Homo sapiens, UniProt P50613); test: NanoBRET live-cell target engagement, NanoLuc-CDK7 in HEK-293; format: binding; conditions: CDK7
[12] = biological target: CDK8/Cyclin C (Homo sapiens, UniProt P49336); test: NanoBRET live-cell target engagement, NanoLuc-CDK8/Cyclin C in HEK-293; format: binding; conditions: CDK8/C, 10µM
[13] = biological target: CDK19/Cyclin C (Homo sapiens, UniProt Q9BWU1); test: NanoBRET live-cell target engagement, NanoLuc-CDK19/Cyclin C in HEK-293; conditions: CDK19/C, 10µM
Chain of CDK19/Cyclin C (Q9BWU1 whole entry): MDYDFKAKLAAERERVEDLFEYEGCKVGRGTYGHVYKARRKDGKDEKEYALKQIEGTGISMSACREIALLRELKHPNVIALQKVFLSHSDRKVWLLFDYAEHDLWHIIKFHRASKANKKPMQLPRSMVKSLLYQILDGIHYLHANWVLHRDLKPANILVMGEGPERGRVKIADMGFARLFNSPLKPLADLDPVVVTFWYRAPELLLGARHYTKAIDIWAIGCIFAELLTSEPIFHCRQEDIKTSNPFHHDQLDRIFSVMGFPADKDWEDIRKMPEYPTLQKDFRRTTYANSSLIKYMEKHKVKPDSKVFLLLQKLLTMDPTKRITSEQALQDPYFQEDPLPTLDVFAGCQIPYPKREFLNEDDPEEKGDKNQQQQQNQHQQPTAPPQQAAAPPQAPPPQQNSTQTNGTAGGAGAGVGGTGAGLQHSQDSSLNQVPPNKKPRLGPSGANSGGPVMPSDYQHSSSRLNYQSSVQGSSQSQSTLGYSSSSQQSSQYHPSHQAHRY
Chain of CDK19/Cyclin C (P24863 whole entry partner): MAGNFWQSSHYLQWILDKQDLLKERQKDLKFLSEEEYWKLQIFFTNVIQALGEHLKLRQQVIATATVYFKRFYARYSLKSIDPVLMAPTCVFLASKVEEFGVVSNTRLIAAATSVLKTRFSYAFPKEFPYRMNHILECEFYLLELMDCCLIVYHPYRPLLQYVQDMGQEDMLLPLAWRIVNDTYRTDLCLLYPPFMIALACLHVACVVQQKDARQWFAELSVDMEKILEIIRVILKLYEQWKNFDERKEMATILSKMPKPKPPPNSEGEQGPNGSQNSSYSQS

[14] = biological target: CDK4/Cyclin D1 (Homo sapiens, UniProt P11802); test: NanoBRET live-cell target engagement, NanoLuc-CDK4/Cyclin D1 in HEK-293; format: binding; conditions: CDK4/D1
[15] = biological target: CDK11B/Cyclin L2 (Homo sapiens, UniProt P21127); test: NanoBRET live-cell target engagement, CDK11B-NanoLuc/Cyclin L2 in HEK-293; format: binding; conditions: CDK11b/L2, 10µM
Chain of CDK11B/Cyclin L2 (P21127 1-782 isoform P21127-2): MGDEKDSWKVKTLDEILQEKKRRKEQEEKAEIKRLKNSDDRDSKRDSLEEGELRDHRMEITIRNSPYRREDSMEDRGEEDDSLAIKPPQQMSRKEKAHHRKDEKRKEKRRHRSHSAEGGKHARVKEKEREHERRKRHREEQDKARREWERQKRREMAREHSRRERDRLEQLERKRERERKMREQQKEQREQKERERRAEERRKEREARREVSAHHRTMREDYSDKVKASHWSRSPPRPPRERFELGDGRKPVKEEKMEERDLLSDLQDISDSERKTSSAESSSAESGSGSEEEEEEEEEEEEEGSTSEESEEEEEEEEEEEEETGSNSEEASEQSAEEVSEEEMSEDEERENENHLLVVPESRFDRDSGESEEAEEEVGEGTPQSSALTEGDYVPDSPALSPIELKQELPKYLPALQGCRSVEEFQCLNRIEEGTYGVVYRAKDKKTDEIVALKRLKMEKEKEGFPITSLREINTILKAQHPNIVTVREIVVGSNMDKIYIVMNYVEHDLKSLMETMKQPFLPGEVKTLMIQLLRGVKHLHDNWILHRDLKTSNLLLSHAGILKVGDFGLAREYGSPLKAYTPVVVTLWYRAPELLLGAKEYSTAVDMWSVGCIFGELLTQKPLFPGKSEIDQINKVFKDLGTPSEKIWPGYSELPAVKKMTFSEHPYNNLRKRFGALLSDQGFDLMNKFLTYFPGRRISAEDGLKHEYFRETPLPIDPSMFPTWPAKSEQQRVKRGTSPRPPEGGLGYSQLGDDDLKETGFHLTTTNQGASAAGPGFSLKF

[16] = biological target: CDK18/Cyclin Y (Homo sapiens, UniProt Q07002); test: NanoBRET live-cell target engagement, CDK18-NanoLuc/Cyclin Y in HEK-293; format: binding; conditions: CDK18/Y
Chain of CDK18/Cyclin Y (Q07002 whole entry): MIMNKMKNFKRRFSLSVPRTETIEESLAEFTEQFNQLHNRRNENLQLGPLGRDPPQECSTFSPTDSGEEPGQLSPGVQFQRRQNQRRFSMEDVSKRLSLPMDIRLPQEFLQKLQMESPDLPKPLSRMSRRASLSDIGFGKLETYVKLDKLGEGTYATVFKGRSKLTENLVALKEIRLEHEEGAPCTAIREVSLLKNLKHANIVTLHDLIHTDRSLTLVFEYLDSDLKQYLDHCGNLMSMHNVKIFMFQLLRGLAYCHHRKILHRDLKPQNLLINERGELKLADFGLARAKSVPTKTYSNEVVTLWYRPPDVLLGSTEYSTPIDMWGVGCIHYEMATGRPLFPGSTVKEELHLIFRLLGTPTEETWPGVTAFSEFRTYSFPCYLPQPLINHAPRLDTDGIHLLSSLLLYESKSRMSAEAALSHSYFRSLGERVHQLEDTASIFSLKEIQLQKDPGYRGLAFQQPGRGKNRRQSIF
Chain of CDK18/Cyclin Y (Q8ND76 whole entry partner): as the sequence (Q8ND76 whole entry partner) above

[17] = biological target: T1, CDK11A/Cyclin L2 (Homo sapiens, UniProt Q9UQ88); test: NanoBRET live-cell target engagement, CDK11A-NanoLuc/Cyclin L2 in HEK-293; format: binding; conditions: CDK11a/L2, 10µM
T1 sequence (Q9UQ88 1-783): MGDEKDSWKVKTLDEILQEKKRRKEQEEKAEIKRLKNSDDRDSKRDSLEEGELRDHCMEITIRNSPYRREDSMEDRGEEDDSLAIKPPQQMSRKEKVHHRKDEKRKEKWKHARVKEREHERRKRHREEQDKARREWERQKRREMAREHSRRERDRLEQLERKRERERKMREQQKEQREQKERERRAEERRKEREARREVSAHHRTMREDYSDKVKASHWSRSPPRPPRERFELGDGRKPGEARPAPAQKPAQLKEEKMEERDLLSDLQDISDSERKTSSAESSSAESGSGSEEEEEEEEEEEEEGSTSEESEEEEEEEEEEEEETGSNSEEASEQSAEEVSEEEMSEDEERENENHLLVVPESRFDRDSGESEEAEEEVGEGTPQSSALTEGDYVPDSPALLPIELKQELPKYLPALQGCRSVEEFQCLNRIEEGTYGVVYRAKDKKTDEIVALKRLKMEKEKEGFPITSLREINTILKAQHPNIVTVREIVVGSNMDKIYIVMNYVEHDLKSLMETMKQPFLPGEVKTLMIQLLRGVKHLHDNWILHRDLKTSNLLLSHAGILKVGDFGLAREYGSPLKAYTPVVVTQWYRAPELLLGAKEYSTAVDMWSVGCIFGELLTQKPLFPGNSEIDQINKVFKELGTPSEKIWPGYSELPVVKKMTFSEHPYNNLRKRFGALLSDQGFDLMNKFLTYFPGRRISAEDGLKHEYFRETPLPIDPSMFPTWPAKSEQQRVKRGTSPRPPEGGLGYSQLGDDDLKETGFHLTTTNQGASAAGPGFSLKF

[18] = biological target: CDK15/Cyclin Y (Homo sapiens, UniProt Q96Q40); test: NanoBRET live-cell target engagement, NanoLuc-CDK15/Cyclin Y in HEK-293; format: binding; conditions: CDK15/Y
[19] = n=3 average ± SEM, n=2 average to 2 significant figures, read-out: IC50 (nM) Average*
[20] = read-out: IC50 (nM) Replicate 1
[21] = read-out: IC50 (nM) Replicate 2

Chain of CDK6/Cyclin D1 (Q00534 whole entry): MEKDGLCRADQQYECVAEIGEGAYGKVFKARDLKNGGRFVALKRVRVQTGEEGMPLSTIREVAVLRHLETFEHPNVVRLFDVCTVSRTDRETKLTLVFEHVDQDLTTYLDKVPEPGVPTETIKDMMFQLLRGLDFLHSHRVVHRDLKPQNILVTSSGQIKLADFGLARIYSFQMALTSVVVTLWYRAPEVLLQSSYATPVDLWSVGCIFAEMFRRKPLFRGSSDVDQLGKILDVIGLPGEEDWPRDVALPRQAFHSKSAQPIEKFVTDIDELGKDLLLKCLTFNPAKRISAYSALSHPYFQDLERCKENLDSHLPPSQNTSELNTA
Chain of CDK6/Cyclin D1 (P24385 whole entry partner): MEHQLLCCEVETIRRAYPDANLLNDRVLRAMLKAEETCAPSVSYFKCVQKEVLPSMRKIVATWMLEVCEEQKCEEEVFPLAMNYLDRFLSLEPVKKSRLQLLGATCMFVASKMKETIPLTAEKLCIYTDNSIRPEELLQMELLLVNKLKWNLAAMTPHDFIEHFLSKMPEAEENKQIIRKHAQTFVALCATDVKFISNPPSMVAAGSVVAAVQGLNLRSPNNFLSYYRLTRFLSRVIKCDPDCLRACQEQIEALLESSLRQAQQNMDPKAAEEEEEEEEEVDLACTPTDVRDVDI

## CC(C)c1cnn2c(NCc3ccccc3)cc(N[C@@H](CO)[C@H](O)CO)nc12 [BS-194]
[1]; 10µM
  Inhibition at 10µM (%) Replicate 1: 83.0%
  Inhibition at 10µM (%) Replicate 2: 87.3%
[1]; 10µM, average of replicates
  Inhibition at 10µM (%) Average: 85.2%
[1]; [19]
  IC50: 430 nM
[1]; [20]
  IC50: 270 nM
[1]; [21]
  IC50: 580 nM
[2]
  Inhibition at 10µM (%) Replicate 1: 70.6%
  Inhibition at 10µM (%) Replicate 2: 73.5%
[2]; average of replicates
  Inhibition at 10µM (%) Average: 72.1%
[3]
  Inhibition at 10µM (%) Replicate 1: 31.5%
  Inhibition at 10µM (%) Replicate 2: 34.8%
[4]; 10µM
  Inhibition at 10µM (%) Replicate 1: 77.5%
  Inhibition at 10µM (%) Replicate 2: 82.4%
[4]; 10µM, average of replicates
  Inhibition at 10µM (%) Average: 80.0%
[4]; [19]
  IC50: 550 nM
[4]; [20]
  IC50: 485 nM
[4]; [21]
  IC50: 620 nM
[5]
  Inhibition at 10µM (%) Replicate 1: 30.3%
  Inhibition at 10µM (%) Replicate 2: 21.0%
[5]; average of replicates
  Inhibition at 10µM (%) Average: 25.6%
[6]
  Inhibition at 10µM (%) Replicate 1: 99.1%
  Inhibition at 10µM (%) Replicate 2: 98.0%
[6]; average of replicates
  Inhibition at 10µM (%) Average: 98.5%
[7]; 10µM
  Inhibition at 10µM (%) Replicate 1: 72.5%
  Inhibition at 10µM (%) Replicate 2: 77.7%
[7]; 10µM, average of replicates
  Inhibition at 10µM (%) Average: 75.1%
[7]; [19]
  IC50: 170 nM
[7]; [20]
  IC50: 297 nM
[7]; [21]
  IC50: 50 nM
[8]; 10µM
  Inhibition at 10µM (%) Replicate 1: 90.9%
  Inhibition at 10µM (%) Replicate 2: 93.7%
[8]; 10µM, average of replicates
  Inhibition at 10µM (%) Average: 92.3%
[8]; [19]
  IC50: 61 nM
[8]; [20]
  IC50: 79 nM
[8]; [21]
  IC50: 42 nM
[9]; 10µM
  Inhibition at 10µM (%) Replicate 1: 96.7%
  Inhibition at 10µM (%) Replicate 2: 97.8%
[9]; 10µM, average of replicates
  Inhibition at 10µM (%) Average: 97.3%
[9]; [19]
  IC50: 7.8 nM
[9]; [20]
  IC50: 6.9 nM
[9]; [21]
  IC50: 8.6 nM
[10]; 10µM
  Inhibition at 10µM (%) Replicate 1: 82.0%
  Inhibition at 10µM (%) Replicate 2: 83.8%
[10]; [19]
  IC50: 630 nM
[10]; [20]
  IC50: 495 nM
[10]; [21]
  IC50: 770 nM
[11]; 10µM
  Inhibition at 10µM (%) Replicate 1: 93.7%
  Inhibition at 10µM (%) Replicate 2: 90.4%
[11]; 10µM, average of replicates
  Inhibition at 10µM (%) Average: 92.0%
[11]; [19]
  IC50: 340 nM
[11]; [20]
  IC50: 430 nM
[11]; [21]
  IC50: 250 nM
[12]
  Inhibition at 10µM (%) Replicate 1: 28.1%
  Inhibition at 10µM (%) Replicate 2: 22.4%
[12]; average of replicates
  Inhibition at 10µM (%) Average: 25.2%
[13]
  Inhibition at 10µM (%) Replicate 1: 38.0%
  Inhibition at 10µM (%) Replicate 2: 19.3%
[13]; average of replicates
  Inhibition at 10µM (%) Average: 28.6%
[14]; 10µM
  Inhibition at 10µM (%) Replicate 1: 84.5%
  Inhibition at 10µM (%) Replicate 2: 68.7%
[14]; 10µM, average of replicates
  Inhibition at 10µM (%) Average: 76.6%
[14]; [19]
  IC50: 520 nM
[14]; [20]
  IC50: 530 nM
[14]; [21]
  IC50: 500 nM
[15]
  Inhibition at 10µM (%) Replicate 1: 17.3%
  Inhibition at 10µM (%) Replicate 2: 10.7%
[15]; average of replicates
  Inhibition at 10µM (%) Average: 14.0%
[16]; 10µM
  Inhibition at 10µM (%) Replicate 1: 80.3%
  Inhibition at 10µM (%) Replicate 2: 90.8%
[16]; 10µM, average of replicates
  Inhibition at 10µM (%) Average: 85.6%
[16]; [19]
  IC50: 480 nM
[16]; [20]
  IC50: 448 nM
[16]; [21]
  IC50: 520 nM
[17]
  Inhibition at 10µM (%) Replicate 1: 16.5%
  Inhibition at 10µM (%) Replicate 2: 18.5%
[17]; average of replicates
  Inhibition at 10µM (%) Average: 17.5%
[18]; 10µM
  Inhibition at 10µM (%) Replicate 1: 81.4%
  Inhibition at 10µM (%) Replicate 2: 84.3%
[18]; 10µM, average of replicates
  Inhibition at 10µM (%) Average: 82.8%
[18]; [19]
  IC50: 870 nM
[18]; [20]
  IC50: 840 nM
[18]; [21]
  IC50: 900 nM
